Columns and labels:
[1] = test system: smooth muscle cells from aortas of pigs; assay: Inhibition of the proliferation of smooth muscle cells (3H-thymidine incorporation); type: cell-based, pig; conditions: porcine aortic smooth muscle cells
Description: Investigation of the inhibition of the proliferation of smooth muscle cells by the compounds according to the invention
To determine the antiproliferative action of the compounds, smooth muscle cells are used which are obtained from aortas of pigs by the media explant technique [R. Ross, J. Cell. Biol. 50, 172, 1971]. The cells are inoculated into suitable culture dishes, as a rule 96-hole plates, and cultured at 37° C. in 5% CO2 for 2-3 days in medium 199 containing 7.5% FCS and 7.5% NCS, 2 mmol L-glutamine and 15 mmol HEPES, pH 7.4. The cells are then synchronised for 2-3 days by withdrawal of serum and then stimulated into growth using serum or other factors. Test compounds are simultaneously added. After 16-20 hours, 1 μCi ^3 H-thymidine is added and after a further 4 hours the incorporation of this substance into the TCA-precipitatable DNA of the cells is determined.
To determine the IC50 values, the active compound concentration is calculated which, on sequential dilution of the active compound, causes half-maximal inhibition of the thymidine incorporation produced by 1% FCS.

[2] = test system: contractions of isolated rabbit aorta rings induced by angiotensin II (AII); assay: Inhibition of the vascular contraction induced by angiotensin II in isolated rabbit aorta rings in vitro; type: cell-based; conditions: Oryctolagus cuniculus, based on the 3rd = submaximal agonist concentration, read-out: IC50 against contractions induced by AII
Description: Investigation of the inhibition of the contraction induced by agonists
Rabbits of either sex are stunned by a blow to the back of the head and bled out, or in some cases anaesthetised with Nembutal (about 60-80 mg/kg i.v.) and sacrificed by opening the thorax. The thorax aorta is removed, freed from adhering connective tissue, divided into ring segments 1.5 mm wide and individually transferred under an initial loading of about 3.5 g to 10 ml organ baths containing Krebs-Henseleit nutrient solution, aerated with 95% O2 /5% CO2 and temperature-controlled at 37° C., of the following composition: 119 mmol/l of NaCl; 2.5 mmol/l of CaCl2 ×2H2 O; 1.2 mmol/l of KH2 PO4; 10 mmol/l of glucose; 4.8 mmol/l of KCl; 1.4 mmol/l of MgSO4 ×7 H2 O and 25 mmol/l of NaHCO3.
The contractions are determined isometrically by means of Statham UC2 cells via bridge amplifiers (ifd Mulheim or DSM Aalen) and digitalised by means of A/D converters (System 570, Keithley Munich) and assessed. The agonist dose response curves (DRCs) are plotted hourly. With each DRC, 3 or 4 individual concentrations are applied to the baths at a 4 min interval. After the end of the DRC and subsequent washing-out cycles (16 times in each case about 5 sec/min with the abovementioned nutrient solution), a 28-minute resting or incubation phase follows, within which the contractions as a rule reach the starting value again.
The height of the 3rd DRC, in a normal case, is used as a reference quantity for the assessment of the test substance to be investigated in further runs, which substance is applied to the baths in the following DRCs in increasing dose in each case at the start of the incubation period. Each aorta ring is in this case stimulated for the whole day, always with the same agonist.
Agonists and their standard concentrations (administration volume per individual dose=100 μl):
To calculate the IC50 (concentration at which the substance to be investigated causes a 50% inhibition), the effect is in each case based on the 3rd=submaximal agonist concentration.

angiotensin II receptor = target: T1, angiotensin II receptor (Bos taurus, UniProt P25104); assay: Angiotensin II receptor binding in membrane fractions of the adrenal cortex (bovine); conditions: bovine adrenal cortex membranes; 3H-angiotensin II (3-5 nM); 60 min, room temperature, pH 7.2
T1 construct: partially purified membrane fractions of bovine AGC using radioactive angiotensin II; from tissue; host or cells: bovine adrenal gland cortex, partially purified membrane fractions
T1 sequence (P25104 1-359): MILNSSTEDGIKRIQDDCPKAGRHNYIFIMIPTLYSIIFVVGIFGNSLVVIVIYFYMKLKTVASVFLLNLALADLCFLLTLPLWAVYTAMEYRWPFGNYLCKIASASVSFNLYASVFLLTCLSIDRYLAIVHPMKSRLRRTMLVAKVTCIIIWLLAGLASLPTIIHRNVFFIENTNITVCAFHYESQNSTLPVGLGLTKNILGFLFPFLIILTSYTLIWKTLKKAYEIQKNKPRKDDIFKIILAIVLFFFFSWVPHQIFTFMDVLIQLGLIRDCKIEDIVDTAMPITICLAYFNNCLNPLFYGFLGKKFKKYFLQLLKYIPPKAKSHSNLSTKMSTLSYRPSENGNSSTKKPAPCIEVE
Description: Interaction of the compounds according to the invention with the angiotensin II receptor in membrane fractions of the adrenal cortex (bovine)
Adrenal gland cortices from cattle (AGCs), which have been freshly removed and carefully freed from gland medulla, are comminuted in sucrose solution (0.32M) with the aid of an Ultra-Turrax (Janke & Kunkel, Staufen i.B.) to give a coarse membrane homogenate and partially purified to give membrane fractions in two centrifugation steps.
The receptor binding investigations are carried out on partially purified membrane fractions of bovine AGC using radioactive angiotensin II in an assay volume of 0.25 ml, which specifically contains the partially purified membranes (50-80 μg), ^3 H-angiotensin II (3-5 nM), test buffer solution (50 mM Tris, pH 7.2, 5 mM MgCl2) and the substances to be investigated. After an incubation period of 60 min at room temperature, the unbound radioactivity of the samples is separated by means of moistened glass fibre filters (Whatman GF/C) and the bound radioactivity is measured […] in a scintillation cocktail after washing the protein with ice-cold buffer solution (50 mM Tris/HCl, pH 7.4, 5% PEG 6000). The raw data were analysed using computer programs to give Ki or IC50 values (K1 : IC50 values corrected for the radioactivity used; IC50 values: concentration at which the substance to be investigated causes a 50% inhibition of the specific binding of the radioligand).

With `CCCCc1nc(Cl)c(C=O)n1Cc1ccc(C2CCCCC2C(=O)N[C@H](CO)c2ccccc2)cc1` (single isomer, unassigned) [Example 7] the “Inhibition [%] at 10^-6 M” value [1] was 100%.

In the case of `CCCCc1nc(Cl)c(CO)n1Cc1ccc([C@@H]2CCCC[C@H]2C(=O)NS(=O)(=O)c2ccc(C)cc2)cc1` (relative stereo) [Example 9], the IC50 [2] is reported as 0.92 µM and the Ki (angiotensin II receptor) is reported as 0.12 µM.

`CCCCc1nc(Cl)c(C=O)n1Cc1ccc([C@@H]2CCCC[C@H]2c2nnn[nH]2)cc1` (relative stereo) [Example 16, 5-{trans-2-[4-(2-Butyl-4-chloro-5-formyl-imidazol-1-yl-methyl)-phenyl]-cyclohex-1-yl}-tetrazole] gave a Ki (angiotensin II receptor) of 0.44 µM.

`CCCCc1nc(Cl)c(C(=O)O)n1Cc1ccc([C@@H]2CCCC[C@H]2C(=O)NS(=O)(=O)c2ccc(C)cc2)cc1` (relative stereo) [Example 13, N-(4-Tolylsulphonyl)-trans-2-[4-(2-butyl-4-chloro-5-carboxy-imidazol-1-yl-methyl)phenyl]-cyclohexane-1-carboxamide] showed an IC50 [2] of 0.24 µM and a Ki (angiotensin II receptor) of 0.072 µM.

In the case of `CCCCc1nc(Cl)c(CO)n1Cc1ccc(C2CCCCC2C(=O)N[C@H](CO)c2ccccc2)cc1` (single isomer, unassigned) [Example 10], the “Inhibition [%] at 10^-6 M” value [1] is reported as 12%.

With `CCCCc1nc(Cl)c(CO)n1Cc1ccc(C2CCCCC2C(=O)N[C@H](CO)c2ccccc2)cc1` (single isomer, unassigned) [Example 11] the “Inhibition [%] at 10^-6 M” value [1] was 100%.

For `CCCCc1nc(Cl)c(C=O)n1Cc1ccc(C2CCCCC2C(=O)N[C@H](CO)c2ccccc2)cc1` (single isomer, unassigned) [Example 6], the “Inhibition [%] at 10^-6 M” value [1] was 41%.

Work on `CCCCc1nc(Cl)c(C(=O)O)n1Cc1ccc([C@@H]2CCCC[C@H]2C(=O)O)cc1` (relative stereo) [Example 4] yielded an IC50 [2] of 1.4 µM.
